From US7807777B2, “Marker peptide for alzheimer's disease” (Immuno-Biological Laboratories Co., Ltd., priority 2003, dated 2010)

Experiments:
presenilin [1] = test: Western blotting of cell lysates of HEK293 cells expressing APP695, Alcα, Alcβ or Alcγ, with or without presenilin inhibitor; type: cell-based; details: 1 μl of 1 mM DMSO solution per 1 ml culture medium, 24 hrs
Experimental: A DNA encoding Alcα, Alcβ, Alcγ, or APP695 (an isoform of human APP consisting of 695 amino acids) was inserted into a mammalian expression vector pcDNA3.1 (Invitrogen).
(§1) HEK293 cells were seeded in DMEM (D5796: Sigma) containing 10% fetal bovine serum in a 6-well culture plate (area of base: 10 cm^2) and transfected with the expression vector prepared above by using a transfection reagent (LipofectAMINE 2000: Invitrogen). As a control, HEK293 cells were similarly transfected with an empty pcDNA3.1 vector.
One microliter of a DMSO solution containing 1 mM of a presenilin inhibitor L-685,458 (Calbiochem) was added to 1 ml of the culture medium. After the incubation for 24 hrs, a sample of the culture medium was taken. As a control, an equal quantity of DMSO instead of the L-685,458 solution was added to the culture medium and similarly incubated. Then, a sample of the culture medium was taken. The sample of the culture medium was added to 1 ml of HBST buffer (10 mM HEPES of pH 7.4, 150 mM sodium chloride, 0.5% Triton X-100, 5 μg/ml chymostatin, 5 μg/ml leupeptin, and […]) for extracting proteins of the cells. The solubilized cells were centrifuged (12000×g, 10 min) and supernatant was collected to recover the solubilized components. The solubilized components (7.5 μl) were added to 7.5 μl of a sample-buffer mixture (a mixture of 5 μl of 5×SDS sample buffer and 2.5 μl of 8 M urea solution) and boiled for 5 min. This sample was subjected to SDS-PAGE of 8/15% 2-stage gel and then the proteins were transferred on a nitrocellulose membrane for conducting Western blotting. The SDS-PAGE was performed according to the general method of Laemmli. As the primary antibody, an anti-APP cytoplasmic domain antibody (G369, 1/2000 dilution), anti-Alcα antibody (UT83, 0.3 μg/ml), anti-Alcβ antibody (UT99, 0.5 μg/ml), and anti-Alcγ antibody (UT105, 1/500 dilution) were used. The detection was performed by using an ECL kit (Pharmacia). The UT99 and UT105 are antibodies recognizing the C-terminals of Alcβ and Alcγ, respectively. FIG. 6 and FIG. 7A to C show the results.

presenilin [2] = test: Incubation of membrane fragments of HEK293 cells expressing Alcα, Alcβ or Alcγ, Western blotting with anti-Alc antibodies; type: biochemical; details: Alcβ and Alcγ, final concentration 1 μM, 37° C. for 1 or 3 hrs, FIG. 8A to C
Experimental: DNAs encoding Alcα, Alcβ, or Alcγ were each inserted into a mammalian expression vector pcDNA3.1 (Invitrogen).
as §1, with “DMEM” for “DMEM (D5796: Sigma)”, “a 10-cm” for “a 6-well”, “base: 60” for “base: 10”, “were” for “were similarly”
After the incubation for 24 hrs, the culture medium was removed and the cells were washed with ice-cooled PBS. Then, 10 ml of PBS was added again. The cells were detached from the plate by pipetting and transferred into a 15 ml Falcon tube. The cells were collected by centrifugation (1500 rpm, 10 min, low-speed refrigerated centrifuge: Beckmann) as a pellet of the cells. One milliliter of buffer D (0.25 M sucrose, 10 mM triethanolamine-acetate of pH 7.8, 5 μg/ml chymostatin, 5 μg/ml leupeptin, and 5 μg/ml pepstatin) was added to the pellet of the cells, and the cells were broken by 12 passages through a 27 G needle. Then, the broken cells were centrifuged with a TOMY TMA-6 rotor at 3000 rpm (1000×g) for 10 min at 4° C. to remove unbroken cells and nuclei and to obtain a nucleus-removed cell homogenate. […]

Structure (SMILES): CC(C)C[C@H](NC(=O)[C@H](Cc1ccccc1)C[C@@H](O)[C@H](Cc1ccccc1)NC(=O)OC(C)(C)C)C(=O)N[C@@H](Cc1ccccc1)C(N)=O [L-685,458]
- C-terminal fragment (CTFα) of APP in the cell lysate (presenilin [1]; HEK293 cells expressing APP695, FIG. 6): a large amount of the C-terminal fragment (CTFα) was detected in the cell lysate only when the presenilin inhibitor (L-685,458) was added
- C-terminal fragment (CTF1) of Alcα in the cell lysate (presenilin [1]; HEK293 cells expressing Alcα, FIG. 7A): C-terminal fragments (CTF1) were detected only when the presenilin inhibitor was added
- C-terminal fragment of Alcβ in the cell lysate (presenilin [1]; HEK293 cells expressing Alcβ, FIG. 7B): detected even when the presenilin inhibitor was not added
- C-terminal fragment (CTF1) of Alcγ in the cell lysate (presenilin [1]; HEK293 cells expressing Alcγ, FIG. 7C): C-terminal fragments (CTF1) were detected only when the presenilin inhibitor was added
- fragments (such as Alcα-ICD) containing the C-terminal of each Alc (presenilin [2]): such fragments were not detected
